Measurements published in publication PMC5122774, “Cloning of Glycerophosphocholine Acyltransferase (GPCAT) from Fungi and Plants” (The Journal of Biological Chemistry, 2016).

B1: ScGPCAT (Gpc1p) (Saccharomyces cerevisiae S288C) (protein)
chain: MYKLDNNDIDDETNNSVSLTSLLEFLDPIASKVVSKYYHGSHLSKAEQKLRNFEGFRRRKPHHEHDSHHPHHLNRSRSFLQLEDFKVRALQRIRNLDKPLDSIFFKNSSRLEKAFYPFTLFNIFFIGFLMGRFPEWFHVYYTILFFVLMPIRFYTYYKTKNHYFLADFCYFVNMLCLLFIWIFPYSYSLFQSCFAFTFGTLCFAVITWRNSLVIHSIDKTTSCFIHIIPPCVMYVIYHGLPLEYKIERFPGAIIQSELDIKKNILWTSLYYLVWQSLYHYFITLKKSSKIKSGERMTSFEYLTTHQFKNFWAVKLRSPWPMIIYTLSQYFYQLFTMLLCGIWIRYKLAAALFLTIVFLWASHNGATYYIDHYGKNFEKEVDRLRLEVENLQQKLQPDSDAVISDASVNDKDYLNVNRDEDFDDSSSVSSKSD
notes: full-length, 52 kDa, eight predicted TM helices; pYES-DEST52 (GAL1 promoter) in yeast ale1Δ gpc1Δ, microsomal membranes

Assays:
RcGPCAT = molecular target: T1, RcGPCAT (Ricinus communis, UniProt B9RK42); assay: radiometric acyltransferase assay, yeast microsomes; format: biochemical; details: [14C]GPC 4 mM; pH 7.2 phosphate, 1% BSA, 30 °C
T1 construct: gene GPC1
T1 sequence (B9RK42 whole entry, looked up): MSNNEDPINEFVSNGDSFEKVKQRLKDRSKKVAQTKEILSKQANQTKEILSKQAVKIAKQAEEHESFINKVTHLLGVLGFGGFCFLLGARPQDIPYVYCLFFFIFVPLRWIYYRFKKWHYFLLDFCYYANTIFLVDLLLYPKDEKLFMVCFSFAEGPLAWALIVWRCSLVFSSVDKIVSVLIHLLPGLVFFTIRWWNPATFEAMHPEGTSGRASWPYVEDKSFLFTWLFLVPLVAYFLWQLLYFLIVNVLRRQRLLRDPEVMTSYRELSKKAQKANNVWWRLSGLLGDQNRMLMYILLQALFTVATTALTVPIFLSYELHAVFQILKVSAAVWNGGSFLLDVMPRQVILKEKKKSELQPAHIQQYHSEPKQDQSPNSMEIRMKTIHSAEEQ

[1] = substrate: C[N+](C)(C)CCOP(=O)([O-])OC[C@H](O)CO; assay: as above; format: biochemical, Saccharomyces cerevisiae; details: 18:1-CoA as acyl donor, pH 7.2 phosphate, 1% BSA, 30 °C, labelled compound

Molecule | radiometric acyltransferase assay, yeast microsomes (RcGPCAT) | Km [1]
CCCCCC[C@@H](O)C/C=C\CCCCCCCC(=O)SCCNC(=O)CCNC(=O)[C@H](O)C(C)(C)COP(=O)(O)OP(=O)(O)OC[C@H]1O[C@@H](n2cnc3c(N)ncnc32)[C@H](O)[C@@H]1OP(=O)(O)O [ricinoleoyl-CoA] | the castor GPCAT accepted all of the acyl-CoAs tested, including ricinoleoyl-CoA | 
B1 |  | 450 µM
